Data set [1] has as its target T1, CB2 receptor (Mus musculus, UniProt P47936).
T1 construct: from tissue; host or cells: mouse (CD1) spleen, membrane homogenate
The experiment in a line: CB2 radioligand binding, [3H]-CP-55,940 competition in mouse spleen homogenate. The note with it: [3H]-CP-55,940, mouse spleen homogenate; mean ± standard error, five independent experiments in triplicate; read-out: KiCB2. How it is done: Affinities at CB1R and CB2R for compounds 1c–j were assessed by competition of [^3H]-CP-55,940 in mouse brain (minus cerebellum) and spleen homogenates, respectively. Radioligand binding experimental procedures previously reported by us were adopted.
(§1) Male CD1 mice weighing 30–35 g were killed by cervical dislocation and the brain (minus cerebellum) and spleen were rapidly removed and frozen. After thawing, tissues were homogenated in 20 vol. (wt/v) of ice-cold TME buffer (50 mM Tris-HCl, 1 mM EDTA and 3.0 mM MgCl2, pH 7.4). The homogenates were centrifuged at 1,086 ×g for 10 min at 4 °C, and the resulting supernatants were centrifuged at 45,000 ×g for 30 min.
[^3H]-CP-55,940 binding was performed using the method previously described by Ruiu et al.. Briefly, the membranes (30–80 µg of protein) were incubated with 0.5–1 nM of [^3H]-CP-55,940 for 1 h at 30 °C in a final volume of 0.5 mL of TME buffer containing 5 mg/mL of fatty acid-free bovine serum albumin. Non-specific binding was estimated in the presence of 1 µM of CP-55,940. All binding studies were performed in disposable glass tubes pre-treated with Sigma-Cote (Sigma Chemical Co., Ltd., Poole, UK), in order to reduce non-specific binding. The reaction was terminated by rapid filtration through Whatman GF/C filters presoaked in 0.5% polyethyleneimine (PEI) using a Brandell 36-sample harvester (Gaithersburg, MD, USA). Filters were washed five times with 4 mL aliquots of ice-cold Tris HCl buffer (pH 7.4) containing 1 mg/mL BSA. The filter bound radioactivity was measured in a liquid scintillation counter (Tricarb 2900, Packard, Meridien, […], USA) with 4 mL of scintillation fluid (Ultima Gold MV, Packard).
(§2) Protein determination was performed by means of a Bradford protein assay using BSA as a standard according to the protocol of the supplier (Bio-Rad, Milan, Italy).
(§3) All experiments were performed in triplicate and results were confirmed in at least five independent experiments. Data from radioligand inhibition experiments were analysed by nonlinear regression analysis of a Sigmoid Curve using Graph Pad Prism program. IC50 values were derived from the calculated curves and converted to Ki values as previously described.

Data set [2] addresses T2, CB1 receptor (Mus musculus, UniProt P47746).
T2 construct: from tissue; host or cells: mouse (CD1) brain minus cerebellum, membrane homogenate
The experiment in a line: CB1 radioligand binding, [3H]-CP-55,940 competition in mouse brain (minus cerebellum) homogenate. The note with it: for Ki: mean ± standard error, five independent experiments in triplicate. How it is done: Radioligand binding experimental procedures previously reported by us were adopted.
as §1
All binding studies were performed in disposable glass tubes pre-treated with Sigma-Cote (Sigma Chemical Co., Ltd., Poole, UK), in order to reduce non-specific binding. The reaction was terminated by rapid filtration through Whatman GF/C filters presoaked in 0.5% polyethyleneimine (PEI) using a Brandell 36-sample harvester (Gaithersburg, MD, USA). Filters were washed five times with 4 mL aliquots of ice-cold Tris HCl buffer (pH 7.4) containing 1 mg/mL BSA. The filter bound radioactivity was measured in a liquid scintillation counter (Tricarb 2900, Packard, Meridien, […], USA) with 4 mL of scintillation fluid (Ultima Gold MV, Packard).
as §2, §3

Data set [3] has as its system C57Bl6/J mice. Put plainly: Acute food intake in fasted mice. It is filed as in vivo, mouse. How it is done: To further evaluate the potential application of these CB1 antagonists in the control of food intake and in obesity treatment, compound 1b was preliminarily tested in comparison with SR141716A in an acute in vivo assay using C57Bl6/J mice. The evaluation was carried out according to the animal model previously reported by Di Marzo [19].
It is well known that CB1Rs mediate the hyperphagic effect of cannabinoids. […] To test the potential anti-obesity effect of the new CB1 antagonist 1b we performed food intake experiments according to the acute animal model described by Di Marzo [19]. For a comparison we also reported the results concerning the assumed lead compound of this new series, derivative 1a.
A widely described method was used for the screening of the new CB1 antagonists in the food intake animal model. C57Bl6/J mice weighing 20–25 g were housed individually on a reverse light-dark cycle in a room with temperature and humidity control. The mice were fasted for 18 h before testing. Vehicle or CB1 antagonists were administered by an intraperitoneal injection and 15 min later a known amount of food was presented. Food pellets were weighed after each hour for three hours. Rimonabant was used as internal positive control in order to evaluate the efficacy of each compound. All animal experiments were performed according to the UE (CEE N° 86/609) guidelines for the care and use of experimental animals.
Two-way ANOVA with Bonferroni post-testing was performed using GraphPad Prism version 5.00 for Windows (GraphPad Software, San Diego CA, USA).

Setting [4] is: [3H]-CP 55,940, mouse brain (minus cerebellum) homogenate, read-out: KiCB1.

Read-outs that look alike come from different tables or passages of the source. A value given as a limit tells only on which side of the number the result lay.

T2 sequence (P47746 whole entry): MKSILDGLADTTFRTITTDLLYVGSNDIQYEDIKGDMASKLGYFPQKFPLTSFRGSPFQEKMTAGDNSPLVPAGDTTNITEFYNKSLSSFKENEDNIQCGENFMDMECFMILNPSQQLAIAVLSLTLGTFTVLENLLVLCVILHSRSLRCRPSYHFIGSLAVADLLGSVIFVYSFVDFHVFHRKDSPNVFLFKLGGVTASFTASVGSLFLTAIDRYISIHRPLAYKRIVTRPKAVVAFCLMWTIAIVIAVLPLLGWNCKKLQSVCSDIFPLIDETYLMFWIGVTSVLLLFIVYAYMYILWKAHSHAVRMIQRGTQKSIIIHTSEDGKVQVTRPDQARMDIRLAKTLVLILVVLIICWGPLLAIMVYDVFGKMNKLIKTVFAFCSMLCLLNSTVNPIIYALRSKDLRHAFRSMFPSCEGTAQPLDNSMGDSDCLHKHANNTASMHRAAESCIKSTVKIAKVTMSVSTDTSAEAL
T1 sequence (P47936 whole entry): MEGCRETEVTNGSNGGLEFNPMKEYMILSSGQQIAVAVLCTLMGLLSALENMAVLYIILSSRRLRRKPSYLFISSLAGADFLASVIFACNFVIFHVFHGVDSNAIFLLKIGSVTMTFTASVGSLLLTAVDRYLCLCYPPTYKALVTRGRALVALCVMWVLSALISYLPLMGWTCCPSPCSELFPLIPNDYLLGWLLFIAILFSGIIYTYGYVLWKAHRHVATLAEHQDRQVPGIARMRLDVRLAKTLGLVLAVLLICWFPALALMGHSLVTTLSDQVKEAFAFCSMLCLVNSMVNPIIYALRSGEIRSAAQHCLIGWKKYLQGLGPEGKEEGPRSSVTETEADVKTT

A word on the melting point: it is the temperature of the solid-liquid transition. The compound `O=C(Nc1ccccc1)c1nn(-c2ccc(Cl)cc2Cl)c2c1CCOc1cc(Cl)ccc1-2` [Compound 1f, 8-Chloro-1-(2,4-dichlorophenyl)-N-phenyl-4,5-dihydrobenzo-1H-6-oxa-cyclohepta[1,2-c]pyrazole-3-carboxamide] registered a melting point of 130 °C. Also, in data set [1], the Ki amounted to 4120 ± 620 nM. Also, in data set [2] (setting [4]), the Ki is 233 ± 33 nM. The “CB1-affinity decrease relative to 1a” value in data set [2] (compared with 1a (Ki 10.25 nM)) was 23 fold.

In turn, `O=C(Nc1ccc(Cl)cc1)c1nn(-c2ccc(Cl)cc2Cl)c2c1CCOc1cc(Cl)ccc1-2` [Compound 1g, 8-Chloro-1-(2,4-dichlorophenyl)-N-(p-chlorophenyl)-4,5-dihydrobenzo-1H-6-oxa-cyclohepta[1,2-c]pyrazole-3-carboxamide] gave a melting point of 239 °C. In addition, in data set [1], the Ki is above 5000 nM. The Ki in data set [2] (setting [4]) is 318 ± 36 nM.

On to `Cc1ccc(NC(=O)c2nn(-c3ccc(Cl)cc3Cl)c3c2CCOc2cc(Cl)ccc2-3)cc1` [Compound 1h, 8-Chloro-1-(2,4-dichlorophenyl)-N-tolyl-4,5-dihydrobenzo-1H-6-oxa-cyclohepta[1,2-c] pyrazole-3-carboxamide], for which the melting point amounted to 181 °C. Further, in data set [1], the Ki was above 5000 nM. In data set [2] (KiCB1, [3H]-CP 55,940, mouse brain (minus cerebellum) homogenate), this compound gave a Ki of 429 ± 49 nM.

Take `COc1ccc(NC(=O)c2nn(-c3ccc(Cl)cc3Cl)c3c2CCOc2cc(Cl)ccc2-3)cc1` [Compound 1i, 8-Chloro-1-(2,4-dichlorophenyl)-N-(p-methoxyphenyl)-4,5-dihydrobenzo-1H-6-oxa-cyclohepta[1,2-c]pyrazole-3-carboxamide]: the melting point amounted to 214 °C. Also, in data set [1], the Ki is above 5000 nM. In addition, the Ki in data set [2] (setting [4]) was 330 ± 45 nM.

Compound `O=C(Nc1ccc(C(F)(F)F)cc1)c1nn(-c2ccc(Cl)cc2Cl)c2c1CCOc1cc(Cl)ccc1-2` [Compound 1j] showed a melting point of 249 to 250 °C. In data set [1], the Ki was above 5000 nM. The Ki in data set [2] (setting [4]) was 459 ± 57 nM.

Turning to `Cc1c(C(=O)NN2CCCCC2)nn(-c2ccc(Cl)cc2Cl)c1-c1ccc(Cl)cc1` [rimonabant, N-piperidinyl-5-(4-chlorophenyl)-1-(2,4-dichlorophenyl)-4-methyl-1H-pyrazole-3-carboxamide, reference compound], the “Food intake effect over time” value in data set [3] (10 mg/kg i.p., at 2 h and 3 h) was “fades away”. In data set [3] (20 mg/kg (highest assayed dosage)), the “Observable side effects / behavioural effects” value is reported as “marked behavioural effects”.

The values are drawn from article PMC6539809, “Development of Oxygen-Bridged Pyrazole-Based Structures as Cannabinoid Receptor 1 Ligands” (Molecules, 2019).
